The values below come from PMC7415805 (Theranostics, 2020).

The test system of experiment [1] is 293FT cells expressing polymorphic TSPO. The experiment is described as follows: In vitro cellular uptake of radioactive ligands in cells expressing polymorphic TSPO. Conditions: 293FT cells expressing TSPO WT or Mut-A147T; 1 h at 37°C. Format: cell-based, human. The procedure:
Cells were seeded in 6-well plates (Sigma-Aldrich) until they reached approximately 80% confluency. […] The cells were then trypsinized (Gibco), counted, and 1×10^5 cells transferred into a 5 mL test tube containing warmed Hank's balanced salt solution (HBSS, Sigma-Aldrich) with 0.5% (w/v) bovine serum albumin (Sigma-Aldrich). […] The cells were then washed 3 times with cold HBSS and lysed for 5 min in 200 μL of 1% sodium dodecyl sulfate (SDS, Sigma-Aldrich). Cell lysates were collected, and radioactivity was measured by a Cobra II gamma counter (Canberra Packard; Vaughan, Ontario, Canada). Radioactivity was normalized according to the amount of total protein at the time of assay. Total protein levels were quantified by the BCA protein assay kit (Pierce, Rockford, IL, USA). All experiments were performed in triplicate.

Experiment [2] relates to 293FT cells expressing polymorphic TSPOs. Description: PET scans of 293FT cells expressing polymorphic TSPOs (phantoms and mice bearing the cells). Details: species or system human. Conditions: phantoms and mice bearing 293FT cells with polymorphic TSPOs.
In experiment [3] the test system is 293FT cells transfected with pCMV-TSPO/eGFP. The experiment is described as follows: [18F]CB251 uptake in TSPO-overexpressing cells. Format: cell-based, human. The note with it: TSPO-overexpressing 293FT cells vs control. The procedure: (§1) For overexpression of the TSPO protein, the 293FT cell line was transiently transfected with vectors (pCMV-eGFP/TSPO) (AddGene, Cambridge, MA, USA) harboring the eGFP and TSPO coding sequences. MDA-MB-231, which highly expresses TSPO, was used for the reduction of TSPO expression by shRNA (pCMV-eGFP/shTSPO; AddGene). Each vector used for various levels of TSPO expression was transfected by Lipofectamine 2000 (Invitrogen, Waltham, MA, USA) at a total concentration of 2.5 µg/mL. Fluorescent images were acquired by a confocal laser-scanning microscope (Leica TCS SP8; Wetzlar, Hesse, Germany), and Western blotting was performed for verification.
(§2) Cells were seeded in 6-well plates (Sigma-Aldrich) until they reached approximately 80% confluency. Before the uptake experiments, the cells were preincubated with glucose-free RPMI-1640 medium (Gibco) for 4 h. The cells were then trypsinized (Gibco), counted, and 1×10^5 cells transferred into a 5 mL test tube containing warmed Hank's balanced salt solution (HBSS, Sigma-Aldrich) with 0.5% (w/v) bovine serum albumin (Sigma-Aldrich). […] Cell lysates were collected, and radioactivity was measured by a Cobra II gamma counter (Canberra Packard; Vaughan, Ontario, Canada). Radioactivity was normalized according to the amount of total protein at the time of assay. Total protein levels were quantified by the BCA protein assay kit (Pierce, Rockford, IL, USA). […]

The test system of experiment [4] is MDA-MB-231 cells transfected with pCMV-shTSPO/eGFP. The experiment is described as follows: [18F]CB251 uptake in cells with reduced TSPO expression. Format: cell-based, human. Conditions: MDA-MB-231 cells with reduced TSPO expression vs control. The procedure: as §1, §2
The next experiment deals with RAW264.7. The experiment is described as follows: [18F]CB251 uptake in activated macrophage cell line. Format: cell-based, mouse. The note with it: RAW264.7 activated with LPS and IFN-γ for 24 h vs non-activated. Here is the method: (§3) RAW264.7, a mouse macrophage cell line and mouse splenocytes were used to evaluate TSPO expression. LPS (50 ng/mL, Sigma-Aldrich, St.Louis, MO, USA) and IFN-γ (20 ng/mL, Sigma-Aldrich) were used to activate immune cells. The 293FT (Invitrogen, Carlsbad, CA, USA) and MDA-MB-231 (ATCC, Manassas, VA, USA) cell lines were used for various TSPO expression levels. Cells were maintained in complete DMEM (for Raw264.7 and MDA-MB-231) or MEM (for 293FT) with 10% FBS and 1% antibiotics (penicillin-streptomycin). All media and reagents for cell culture, including FBS and antibiotics were purchased from Gibco (Grand Island, NY, USA).
as §2

Another experiment concerns mouse splenocytes. Description: [18F]CB251 uptake in activated splenocytes. Format: cell-based. The note with it: mouse splenocytes activated with LPS and IFN-γ for 24 h vs non-activated. Here is the method: as §3, §2
Experiment [5] concerns the target T1, TSPO (Mus musculus, UniProt P50637).
T1 construct: from tissue; host or cells: brain (striatum) of living C57BL/6 mice after intracranial LPS or saline
Description: [18F]CB251 PET/MR in intracranial LPS neuroinflammation model. Format: in vivo. The note with it: saline-injected mice, day 4; p=0.012. Here is the method: C57BL/6 mice (male, 6 weeks old) were used for generating the intracranial inflammation model. LPS (Sigma-Aldrich, 5 µg/2 µL dissolved in saline) was used to induce local inflammation in the right striatum of the mouse brain (anteroposterior, +1.8; mediolateral, +2.0; dorsoventral, -3.0) via intracranial injection by a robotic stereotaxic device (Stoelting, Wood Dale, IL) equipped with a Hamilton syringe at a rate of 0.25 µL/min [52]-[54]. Saline was injected as a control. The mouse was placed in the isoflurane induction box (5% isoflurane, 95% air, 250 cc/min) until the animal was fully anesthetized, and the isoflurane percentage was adjusted to 2% at a flow rate of 250 cc/min during the process.
To visualize neuroinflammation, PET/MR scans were acquired by a simultaneous small animal PET insert (SimPET, Brightonic imaging, Seoul, Korea) combined with an M7 1.0 T MRI system (Aspect Imaging, Jerusalem, Israel). […] Mice were anesthetized with 1.5% isoflurane during imaging.
(§4) PET images were reconstructed using 3D OSEM algorithm (12 subsets and 3 iterations). […] PET and MR images were reconstructed and analyzed by the AMIDE program (ver 0.9.0, http://amide.sourceforge.net). The ratio of maximum PET SUV in the right and left striatum was then calculated.

Experiment [6] has as its system intracranial LPS-induced neuroinflammation. Description: Anti-inflammatory treatment in intracranial LPS neuroinflammation model, read by [18F]CB251 PET and BLI. Format: in vivo, mouse. Conditions: CDDO-Me i.p. once daily for 3 days after LPS vs LPS-injected mice. Here is the method: Luciferase-expressing cells were isolated from the dissected spleens of transgenic C57BL/6luc^Tg mice and centrifuged at 1300 rpm for 5 min at 4 °C). The red blood cell lysis buffer (1 mL/spleen, Sigma-Aldrich) was added to the cell pellet, and the mixture was incubated at room temperature for 3 min to remove red cells. After a double volume of RPMI medium was added to the cells, 2-3 volumes of red blood cell lysis buffer were added until complete lysis of red blood cells. Subsequently, the cells were re-suspended, ensuring a suspension of single cells, and filtered through a cell strainer (40 µm nylon, Falcon, Oneonta, NY). […] Bioluminescence intensity was measured by an IVIS 100 system (Perkin Elmer, Waltham, MA). […]
as §4
An in vivo IVIS 100 bioluminescence/optical imaging system (Xenogen, Alameda, CA, USA) was used to follow luciferase-expressing peripheral immune cells. […] The bioluminescent signal was acquired and analyzed by Living Image ver.2.50.2 software (Xenogen). […]

Experiment [7] deals with TSPO. The note with it: Ki of ligands for TSPO; cited from earlier work.
In the next experiment the test system is TSPO A147T mutant (LAB). Conditions: previous reports; cited from earlier work.

T1 sequence (P50637 whole entry): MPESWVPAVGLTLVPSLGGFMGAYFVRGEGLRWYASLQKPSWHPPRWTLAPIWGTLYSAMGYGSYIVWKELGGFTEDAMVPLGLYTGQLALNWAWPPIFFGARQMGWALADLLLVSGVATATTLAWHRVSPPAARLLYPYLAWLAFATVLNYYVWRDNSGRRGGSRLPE

For `CCCN(CCC)C(=O)Cc1c(-c2ccc(OCCF)cc2)nc2c(Cl)cc(Cl)cn12` [CB251], in experiment [1], the “sensitivity of cellular uptake to TSPO polymorphism” value is recorded as “much less sensitive to TSPO polymorphism”. In experiment [2], the “sensitivity of PET signal to TSPO polymorphism” value is listed as “less sensitive to TSPO polymorphism”. For the same compound, the “[18F]CB251 uptake” value in [3] is “increased”; in [4], “decreased”; with RAW264.7, “increased”; in the experiment on mouse splenocytes, “increased”. For the same compound, the “[18F]CB251 PET signal, saline-injected right striatum vs non-injected left striatum” value at TSPO [5] is listed as “increased slightly”.

For the compound `CCC(C)N(C)C(=O)c1cc2ccccc2c(-c2ccccc2Cl)n1` (stereo not drawn) [PK11195, reference compound], in experiment [1], the “sensitivity of cellular uptake to TSPO polymorphism” value is reported as “much less sensitive to TSPO polymorphism”.

In the case of `COC(=O)[C@]12CCC(C)(C)C[C@H]1[C@H]1C(=O)C=C3[C@@]4(C)C=C(C#N)C(=O)C(C)(C)[C@@H]4CC[C@@]3(C)[C@]1(C)CC2` [CDDO-Me, 2-Cyano-3,12-dioxo-oleana-1,9(11)-dien-28-oic acid methyl ester], the “BLI signal ratio (total photon flux, right/left striatum)” value in [6] (p=0.0025) was “decreased dramatically”. The “[18F]CB251 uptake ratio (SUVmax, right/left striatum)” value in experiment [6] (p=0.0323) is given as “significantly decreased”.

In general, Ki refers to a dissociation constant, usually derived from enzyme kinetics or from competition with a known ligand. For the compound `COc1ccccc1CN(C(C)=O)c1cnccc1Oc1ccccc1` [PBR28, reference compound], the Ki at TSPO [7] was 6.1 nM. Besides, in the experiment with TSPO A147T mutant (LAB), the “ratio of IC50 LAB/HAB” value is 55.
